Measurements taken from patent US20230278972A1, “SUBSTITUTED HALOALKYL SULFONANILIDE HERBICIDES” (FMC Corporation, priority 2020, published 2023).

Tests used:
Type in all cases: in vivo
[1] = tested on: wheat (Triticum aestivum); experiment: Test A postemergence, wheat; conditions: Postemergence
Summary of the method: (§1)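 Seeds are sown in loam mixed with sand and sprayed on the soil surface right after planting for the preemergence test. Postemergence pots are sprayed once seedlings reach 2 to 10 cm at the one- to two-leaf stage. The same surfactant-containing, non-phytotoxic solvent formulation serves both.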

kochia (Bassia scoparia) [2] = experiment: Test A postemergence, kochia; conditions: Postemergence
Summary of the method: (§2)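 Preemergence: seeded pots of loam plus sand received a directed soil spray. Postemergence: seedlings at one to two leaves, 2 to 10 cm high, were oversprayed. Each compound was formulated in a non-phytotoxic solvent mix that included a surfactant.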

[3] = tested on: Ryegrass, Italian (Italian ryegrass, Lolium multiflorum); experiment: Test A postemergence, Ryegrass, Italian; conditions: Postemergence
Summary of the method: as §2

[4] = tested on: Ryegrass, Italian (Italian ryegrass, Lolium multiflorum); experiment: Test A preemergence, Ryegrass, Italian; conditions: Preemergence; for Plant response rating, Ryegrass, Italian: 31 g ai/ha, visual injury, 0 to 100 scale (0 no effect, 100 complete control), approx. 10 days; for Ryegrass, Italian plant response rating: 125 g ai/ha, visual injury on 0 to 100 scale (0 no effect, 100 complete control), approximately 10 days
Summary of the method: as §2

[5] = tested on: pigweed (Amaranthus retroflexus); experiment: Test A preemergence, pigweed; conditions: for Plant response rating, Pigweed: 31 g ai/ha, visual injury, 0 to 100 scale (0 no effect, 100 complete control), approx. 10 days; for Pigweed plant response rating: 125 g ai/ha, visual injury on 0 to 100 scale (0 no effect, 100 complete control), approximately 10 days
Summary of the method: as §1

kochia (Bassia scoparia) [6] = experiment: Test A preemergence, kochia; conditions: Preemergence; for Plant response rating, Kochia: 31 g ai/ha, visual injury, 0 to 100 scale (0 no effect, 100 complete control), approx. 10 days; for Kochia plant response rating: 125 g ai/ha, visual injury on 0 to 100 scale (0 no effect, 100 complete control), approximately 10 days
Summary of the method: as §2

corn (Zea mays) = experiment: Test A postemergence, corn; conditions: Postemergence
Summary of the method: as §2

[7] = tested on: blackgrass (Alopecurus myosuroides); experiment: Test A postemergence, blackgrass; conditions: Postemergence, 0 to 100 scale (0 no effect, 100 complete control)
Summary of the method: as §2

[8] = tested on: ragweed (common ragweed, Ambrosia artemisiifolia); experiment: Test A postemergence, ragweed; conditions: Postemergence
Summary of the method: as §2

[9] = tested on: barnyardgrass (Echinochloa crus-galli); experiment: Test A postemergence, barnyardgrass; conditions: Postemergence, 0 to 100 scale (0 no effect, 100 complete control)
Summary of the method: as §1

[10] = tested on: galium (catchweed bedstraw, Galium aparine); experiment: Test A postemergence, galium; conditions: Postemergence
Summary of the method: as §1

[11] = tested on: Foxtail, Giant (giant foxtail, Setaria faberi); experiment: Test A preemergence, Foxtail, Giant; conditions: Preemergence; for Plant response rating, Foxtail, Giant: 31 g ai/ha, visual injury, 0 to 100 scale (0 no effect, 100 complete control), approx. 10 days; for Foxtail, Giant plant response rating: 125 g ai/ha, visual injury on 0 to 100 scale (0 no effect, 100 complete control), approximately 10 days
Summary of the method: as §2

[12] = tested on: ragweed (common ragweed, Ambrosia artemisiifolia); experiment: Test A preemergence, ragweed; conditions: Preemergence; for Plant response rating, Ragweed: 31 g ai/ha, visual injury, 0 to 100 scale (0 no effect, 100 complete control), approx. 10 days; for Ragweed plant response rating: 125 g ai/ha, visual injury on 0 to 100 scale (0 no effect, 100 complete control), approximately 10 days
Summary of the method: as §2

[13] = tested on: pigweed (Amaranthus retroflexus); experiment: Test A postemergence, pigweed; conditions: Postemergence
Summary of the method: as §2

[14] = tested on: barnyardgrass (Echinochloa crus-galli); experiment: Test A preemergence, barnyardgrass; conditions: Preemergence; for Plant response rating, Barnyardgrass: 31 g ai/ha, visual injury, 0 to 100 scale (0 no effect, 100 complete control), approx. 10 days; for Barnyardgrass plant response rating: 125 g ai/ha, visual injury on 0 to 100 scale (0 no effect, 100 complete control), approximately 10 days
Summary of the method: as §2

[15] = tested on: Foxtail, Giant (giant foxtail, Setaria faberi); experiment: Test A postemergence, Foxtail, Giant; conditions: Postemergence
Summary of the method: as §2

[16] = 31 g ai/ha, visual injury on 0 to 100 scale (0 no effect, 100 complete control), approx. 10 days
[17] = 125 g ai/ha, 0 to 100 scale (0 no effect, 100 complete control)

Structure (SMILES) | Plant response rating, Wheat [1, 16] | Plant response rating, Wheat [1, 17] | Plant response rating, Kochia (kochia (Bassia scoparia) [2]; [16]) | Plant response rating, Kochia (kochia (Bassia scoparia) [2]; [17]) | Plant response rating, Ryegrass, Italian [3, 16] | Plant response rating, Ryegrass, Italian [3, 17] | Plant response rating, Ryegrass, Italian [4] | Ryegrass, Italian plant response rating [4] | Plant response rating, Pigweed [5] | Pigweed plant response rating [5] | Plant response rating, Kochia (kochia (Bassia scoparia) [6]) | Kochia plant response rating (kochia (Bassia scoparia) [6]) | Plant response rating, Corn (corn (Zea mays); [16]) | Plant response rating, Corn (corn (Zea mays); [17]) | Plant response rating, Blackgrass ([7]; 31 g ai/ha) | Plant response rating, Blackgrass ([7]; 125 g ai/ha) | Plant response rating, Ragweed [8, 16] | Plant response rating, Ragweed [8, 17] | Plant response rating, Barnyardgrass ([9]; 31 g ai/ha) | Plant response rating, Barnyardgrass ([9]; 125 g ai/ha) | also measured
Cc1cc(C)c(N(COC(=O)C2CCCCC2)S(=O)(=O)C(F)(F)F)cc1C1=NOC2(CCCC2)C1 [Compound 148] | 0 | 0 | 0 | 20 | 0 | 0 | 30 | 100 | 30 | 100 | 20 | 30 | 0 | 0 | 0 | 0 | 0 | 0 | 0 | 10 | Plant response rating, Galium [10, 16]: 0; Plant response rating, Galium [10, 17]: 20; Plant response rating, Foxtail, Giant [11]: 40; Foxtail, Giant plant response rating [11]: 100; Plant response rating, Ragweed [12]: 0; Ragweed plant response rating [12]: 20; Plant response rating, Pigweed [13, 16]: 40; Plant response rating, Pigweed [13, 17]: 40; Plant response rating, Barnyardgrass [14]: 20; Barnyardgrass plant response rating [14]: 80; Plant response rating, Foxtail, Giant [15, 16]: 0; Plant response rating, Foxtail, Giant [15, 17]: 0
Cc1cc(C)c(N(COC(=O)c2ccccc2)S(=O)(=O)C(F)(F)F)cc1C1=NOC2(CCCC2)C1 [Compound 149] | 0 | 0 | 0 | 10 | 0 | 0 | 50 | 50 | 30 | 70 | 0 | 0 | 0 | 0 | 0 | 20 | 0 | 20 | 10 | 40 | Plant response rating, Galium [10, 16]: 0; Plant response rating, Galium [10, 17]: 60; Plant response rating, Foxtail, Giant [11]: 30; Foxtail, Giant plant response rating [11]: 80; Plant response rating, Ragweed [12]: 0; Ragweed plant response rating [12]: 0; Plant response rating, Pigweed [13, 16]: 0; Plant response rating, Pigweed [13, 17]: 40; Plant response rating, Barnyardgrass [14]: 0; Barnyardgrass plant response rating [14]: 0; Plant response rating, Foxtail, Giant [15, 16]: 0; Plant response rating, Foxtail, Giant [15, 17]: 30
Cc1cc(C)c(N(COC(=O)C2CCCC2)S(=O)(=O)C(F)(F)F)cc1C1=NOC2(CCCC2)C1 [Compound 150] | 0 | 60 | 10 | 10 | 0 | 0 | 40 | 90 | 40 | 100 | 0 | 0 | 0 | 0 | 0 | 0 | 0 | 0 | 0 | 50 | Plant response rating, Galium [10, 16]: 40; Plant response rating, Galium [10, 17]: 60; Plant response rating, Foxtail, Giant [11]: 20; Foxtail, Giant plant response rating [11]: 100; Plant response rating, Ragweed [12]: 0; Ragweed plant response rating [12]: 0; Plant response rating, Pigweed [13, 16]: 20; Plant response rating, Pigweed [13, 17]: 40; Plant response rating, Barnyardgrass [14]: 0; Barnyardgrass plant response rating [14]: 90; Plant response rating, Foxtail, Giant [15, 16]: 0; Plant response rating, Foxtail, Giant [15, 17]: 20
